What was measured:
[1] = test system: PANC-1 cells; experiment: Immunofluorescence staining of RAS localisation; assay type: cell-based, human; details: 18 h, anti-pan RAS antibody, PD3 10 µM, deltarasin 2, 5, 10 µM
Excerpt: Finally, we investigated whether PD3 changes KRAS localisation by inhibiting the interaction of KRAS with PDEδ in human pancreatic cancer cells. PDEδ binds the farnesylated RAS proteins and stabilises them[19]. Therefore, PDEδ activity leads to the accumulation of RAS at the plasma membrane (PM); conversely, downmodulation of PDEδ enhances RAS diffusion in the cytoplasm. To confirm the effect of PD3 on the relocalization of RAS, we carried out immunofluorescence staining of PANC-1 cells with an anti-RAS antibody (Figure 6). […] Conversely, in the DMSO-treated control group, RAS was mainly localised in the PM of PANC-1 cells. […] It is supposed that PD3 can induce changes in RAS localisation from the plasma membrane by interrupting the protein–protein interaction of KRAS-PDEδ.
Figure 6. Immunofluorescence of PANC-1 cells with an anti-Pan-RAS antibody (red). DMSO was used as a negative control, and deltarasin was used as a positive control. Ex: 633 nm, Em: ≥638 nm. The scale bar represents 20 µm.
PANC-1 cells were seeded with cover slip in a 6-well cell culture plate (SPL life Science, Gyeonggi-do, Republic of Korea) and incubated for 24 h under 37 °C and 5% CO2 prior to the experiment. […] The fluorescence images were detected by confocal microscope (TCS-SP8 confocal laser scanning microscope, Leica, Germany). Fluorescence signal was obtained by excitation at 633 nm and emission at ≥638 nm.

[2] = biological target: T1, PDEδ (Homo sapiens, UniProt O43924); experiment: Fluorescence polarisation (FP)-based binding assay; details: 0.5 µM PD titrated with PDEδ, PBS pH 7.2; mean ± SD of three independent experiments; read-out: Kd value
T1 construct: made in house; host or cells: E. coli BL21(DE3)
Procedure: To evaluate the binding affinities of PDs to PDEδ, we also carried out a fluorescence polarisation (FP)-based binding assay after incubation of PDs with PDEδ. […] In the presence of 0.5 µM PD compounds, the polarisation value (mP value) increased following treatment with purified PDEδ in a dose-dependent manner until treatment with excess PDEδ induced saturation of binding. Among the tested compounds, 8 compounds were selected for further evaluation and SAR analysis. The binding curves for the selected 8 compounds are shown with their Kd values in Supplemental Figure S3.
(§1) Figure 3. Binding affinities of PDs measured by fluorescence polarisation. (A) Representative binding curve of PDs (PD3) titrated with PDEδ. The FP value was measured in PBS buffer (pH 7.2) containing 8 concentrations (0, 0.5, 1, 2, 4, 8, 16 and 32 μM) of PDEδ mixed with 0.5 μM PDs. Ex: 440 nm, Em: 526 nm; (B) Kd value and half-life of each compound; (C, D) Kinetic trace of PD3 and PD7 in the competition assay. PD3 was shown as a compound with the longest retention time (slow dissociation), whereas PD7 was shown as a compound with the shortest retention time (fast dissociation). The half-life was obtained by a competition binding assay using excess deltarasin. The optimal concentration of PDEδ for the competition assay was determined using the Kd value and PD concentration (0.5 μM) for making more than 68% of the binding complex. Ex: 430 nm, Em: 520 nm. TEXT PRINTED IN THE PICTURE: (A) PD3: Best-fit values Bmax: 261.7; Best-fit values Kd: 0.4991; Std. Error Bmax: 17.98; Std. […] Error Bmax 17.98 (last digit 8 or 6) and Std. Error Kd 0.1956 (5 and 6 not certain) / Panels C and D: k and half-life are printed without a label of their own; assigned to PD3 and PD7 from the panel legends (PDEδ+PD3+Del, PDEδ+PD7+Del)
PDEδ was diluted to make a series of two-fold dilutions with a starting concentration of 32 µM. The diluted solution was mixed with PBS buffer [137 mM NaCl, 2.7 mM KCl, 10 mM Na2HPO4, 2 mM KH2PO4 (pH 7.2)] and then the mixture was loaded on a 96 well black plate (SPL life Science, Gyeonggi-do, Republic of Korea). Compounds were transferred to the wells of assay plate and the final concentration of compounds was fixed to 0.5 µM. After the addition of the compound, the assay plates were incubated for 2 h at 4 °C. FP values were detected by SpectraMax M5 microplate reader (Molecular Devices, San Jose, CA) at the maximum absorption and emission wavelengths of PD compounds in assay buffer. Kd values were determined by previously reported method.

[3] = biological target: T1, PDEδ; experiment: FP-based competition binding assay using excess deltarasin
Procedure: as §1
To confirm that the PD compound occupies the same farnesylation binding site as deltarasin in PDEδ and to exclude the possibility that the FP signal resulted from non-specific hydrophobic interactions, we carried out a FP-based competition assay. PDs (0.5 µM) were incubated with the purified PDEδ protein for 2 h to ensure complete binding between the compound and the protein. Then, deltarasin was added to replace the PD compound in the prenyl binding pocket of PDEδ, which decreased the FP due to the free rotation of the released PD compound. As shown in Figure 3(B), the reverse correlation between Kd values and half-lives was observed (Figure 3(B) and Table 1). […] The rate constants and half-lives were measured only when the increased concentration of deltarasin produced concentration-independent kinetic parameters, which reflects complete displacement of the binding site with the deltarasin. The kinetic trace was fit to a single exponential decay to generate the dissociation rate constant and half-life. Given that the Kd value is a ratio of koff/kon in a simple bimolecular binding model, the measured half-life and Kd are not always matched due to the contribution from the association rate constant. Figure 3(C) (PD3) and 3 D (PD7) show a representative kinetic trace obtained in the competition assay.
Deltarasin, a well-known PDEδ inhibitor, was purchased from Chemietek (Indianapolis, IN) for the competition assay. Assay buffer and the plate were the same as used in fluorescence polarisation assay. The optimal concentration of PDEδ was determined based on the Kd values and ligand concentration (0.5 µM) to ensure the formation of ligand-protein complex. The mixture of PDEδ and compounds were incubated for 2 h at 4 °C. After adding deltarasin to the mixture, FP was immediately recorded by SpectraMax M5 microplate reader (Molecular Devices, San Jose, CA) with excitation at 430 nm and emission at 520 nm. In SpectraMax M5 microplate reader, single excitation and emission wavelengths need to be used for testing all compounds. Therefore, Ex 430/Em 520 was used for competition binding assay. The selected ex/em wavelengths have only a difference of less than 10 nm from the maximum wavelengths, and there was no critical issue for conducting assay. The kinetic trace was fit to a single exponential decay to generate dissociation rate constant and half-life.

[4] = biological target: T1, PDEδ; experiment: Fluorescence measurement after incubation with recombinant PDEδ; assay type: binding; details: 2 µM PD + 2 µM PDEδ, 20 mM Tris buffer pH 7.5, Ex 280 nm
Procedure: With the structural rationale for the binding to PDEδ from the molecular docking studies, we measured the fluorescence responses of the PDs after incubation with recombinant PDEδ proteins to confirm the binding of PDs to PDEδ. We envisioned that the hydrophobic environment of the prenyl binding pocket of PDEδ, as depicted in Figure 1(C), could enhance the fluorescent signal due to the solvatochromic characteristics of IQ scaffold. In addition, tryptophan residues near the binding site of PDEδ and the fluorophore of PDs could act as a fluorescence resonance energy transfer (FRET) pair. […] All recoded spectra of PDs are depicted in Supplemental Figure S1. To compare the binding abilities of PD derivatives to the target protein, same concentration (2 µM) of PD compound was treated and then fluorescence intensity was measured in Spectrofluorometer FP-6500.
The fluorescence changes were measured to determine the interaction between PD compounds and PDEδ protein. The fluorescence spectra were obtained under Tris buffer [20 mM Tris-HCl (pH 7.5), 100 mM NaCl] at 20 °C. The concentration of PDEδ was 2 µM. After the addition of 2 µM PD compound, the mixture was gently inverted 3 times and then incubated for 1 min. The emission spectra were recorded on Spectrofluorometer FP-6500 (JASCO, Tokyo, Japan) at Ex 280 nm. The band width was 3 nm for excitation and 5 nm for emission.

[5] = retention in PDEδ on displacement by excess deltarasin, 0.5 µM PD, mean ± SD of three independent experiments

Compound	Kd [2]	Half-life [3, 5]	Half-life ([3]; representative kinetic trace, single exponential decay)	koff ([3]; representative kinetic trace, single exponential decay, read-out: dissociation rate constant k (converted))	RAS localisation at the plasma membrane (PM) [1]	Fluorescence response upon incubation with PDEδ [4]
c1ccc(Cn2c(-c3ccc(OC[C@H](C4CCNCC4)n4c(-c5ccccc5)nc5ccccc54)cc3)nc3ccccc32)cc1 [deltarasin, reference compound]	–	–	–	–	reduced the amount of RAS at the PM	–
c1csc(-c2nc3ccccc3c3cc4ccccn4c23)c1 [PD25]	425 ± 75 nM	26 ± 3 min	–	–	–	–
COc1ccc(-c2nc3ccccc3c3cc4ccccn4c23)cc1 [PD5]	720 ± 85 nM	20 ± 4 min	–	–	–	–
COc1ccc(-c2nc3ccccc3c3cc4ccccn4c23)cc1OC [PD6]	1280 ± 261 nM	19 ± 3 min	–	–	–	exceeded the maximum detection limit of Spectrofluorometer
Brc1ccc(-c2nc3ccccc3c3cc4ccccn4c23)cc1 [PD1]	284 ± 140 nM	36 ± 2 min	–	–	–	–

More lines, main results first:

Kd [2]	Half-life [3, 5]	Half-life ([3]; representative kinetic trace, single exponential decay)	koff ([3]; representative kinetic trace, single exponential decay, read-out: dissociation rate constant k (converted))	Compound	RAS localisation at the plasma membrane (PM) [1]	Fluorescence response upon incubation with PDEδ [4]
505 ± 33 nM	31 ± 9 min	–	–	c1ccc(-c2nc3ccccc3c3cc4ccccn4c23)cc1 [PD4]	–	–
1540 ± 180 nM	14 ± 1 min	13 min	0.0009 s⁻¹	c1ccc2c(-c3nc4ccccc4c4cc5ccccn5c34)cccc2c1 [PD7]	–	–
643 ± 128 nM	35 ± 7 min	–	–	c1ccc2cc(-c3nc4ccccc4c4cc5ccccn5c34)ccc2c1 [PD8]	–	–

Reference: publication PMC9225715, “Development of PD3 and PD3-B for PDEδ inhibition to modulate KRAS activity” (Journal of Enzyme Inhibition and Medicinal Chemistry, 2022)
